Activity calls are given as the source filed them. The rule behind the calls is not given here.
Experiments:
[1] = system: Chlorella vulgaris; experiment: Inhibition of Chlorella vulgaris Beij assessed as reduction of chlorophyll content; assay type: functional, organism-based
[2] = Lipophilicity, log K of the compound; assay type: physicochemical; details: octanol/water
[3] = (§1) Inhibition of photosynthesis in spinach chloroplast; assay type: functional, Spinacia oleracea
[4] = system: SK-N-MC; experiment: Antiproliferative activity against human SK-N-MC cells by MTT assay; assay type: functional, cell-based
[5] = system: Spinacia oleracea; experiment: as §1; assay type: functional

SMILES	IC50 [1]	log K [2]	IC50 [3]	IC50 [4]	Activity [5]	Activity [1]
Oc1ccc(/N=C/c2ccc3cccc(O)c3n2)cc1	17 µM	1.0911	–	–	–	–
O=C(O)c1ccc2nc(/C=C/c3ccccc3Cl)ccc2c1	115 µM	1.4787	215 µM	> 6.25 µM	–	–
O=C(O)c1cccc2nc(/C=C/c3ccc(Cl)cc3)ccc12	96 µM	1.3976	487 µM	> 6.25 µM	–	–
Oc1cccc2ccc(/C=C/c3ccc(Cl)cc3)nc12	–	1.5558	448 µM	0.77 µM	–	–
Oc1cccc2ccc(/C=C/c3ccc(Br)cc3)nc12	–	1.5802	135 µM	> 6.25 µM	–	–
CN(C)C(=O)Nc1ccc(Cl)c(Cl)c1 [DCMU]	–	–	1.9 µM	–	–	–
O=C(O)c1ccc2ccc(/C=C/c3cccc(Cl)c3)nc2c1	–	1.2858	–	> 6.25 µM	–	–
O=[N+]([O-])c1cc([N+](=O)[O-])c2cccnc2c1O	–	0.7154	82 µM	> 6.25 µM	–	–
Oc1ccccc1/N=C/c1ccc2cccc(O)c2n1	11 µM	0.4308	–	> 6.25 µM	–	–
O=C(O)c1ccc(C(=O)O)c2nc(/C=C/c3cccc(Br)c3)ccc12	–	1.2171	–	–	–	–
COc1ccccc1/C=C/c1ccc2cccc(C(=O)O)c2n1	–	1.1922	–	–	–	–

The next lines start with results.

IC50 [1]	log K [2]	IC50 [3]	IC50 [4]	SMILES	Activity [5]	Activity [1]
–	0.2707	142 µM	–	Cc1ccc2c(N)cc(N)c(O)c2n1	–	–
168 µM	0.886	–	–	Oc1cccc(/N=C/c2ccc3cccc(O)c3n2)c1	–	–
114 µM	0.0522	185 µM	> 6.25 µM	Nc1cc(N)c2cccnc2c1O	–	–
–	0.1515	–	> 6.25 µM	Cc1nc2ccccc2c(=O)[nH]1	inactive	inactive
33 µM	1.5395	146 µM	> 6.25 µM	Oc1cccc2ccc(/C=C/c3cccc(Cl)c3)nc12	–	–
95 µM	0.7292	26 µM	> 6.25 µM	Cc1ccc2c([N+](=O)[O-])cc([N+](=O)[O-])c(O)c2n1	–	–
–	–	–	0.31 µM	NC(=S)N/N=C/c1ncccc1N [TRIAPINE]	–	–
–	0.3629	146 µM	> 6.25 µM	Cc1ccc2c(C(=O)O)cccc2n1	–	–
